# Values quoted from earlier work as cited in US20030203004A1, “Compositions comprising short and long chain fatty acids and methods of their use for the management of body weight” (priority 2002, published 2003).
# Key:
# [1] = rats
# [2] = humans; sodium propionate included in bread; attributed to delayed gastric emptying rate
# [3] = rats; jejunally infused neat, 0.2 mL/hr for seven hours
Structure (SMILES),effect on gastric emptying [1],satiety [2],total daily caloric intake [3]
CCC(=O)[O-].[Na+] [sodium propionate],no effect,induction of satiety,–
CCCCCCCC/C=C\CCCCCCCC(=O)O [oleic acid],–,–,significantly reduce
CCCCC/C=C\C/C=C\CCCCCCCC(=O)O [linoleic acid],–,–,significantly reduce
